Here are results for 24 compounds from ChEMBL document CHEMBL3046967, “Synthesis and Fungicidal Activities of 2-(-Methoxyiminobenzyl)-1-methylimidazole Derivatives” (2001).

What all share (type): functional
For assay [1], the system named is Pseudoperonospora cubensis. The assay is described as follows: Antifungal activity against Pseudoperonospora cubensis in cucumber at 500 ppm.
In assay [2] the test system is Podosphaera fuliginea. The assay is described as follows: Antifungal activity against Podosphaera fuliginea in cucumber at 7.8 ppm.
Assay [3] deals with Botrytis cinerea. The experiment in a line: Antifungal activity against Botryotinia fuckeliana in cucumber at 7.8 ppm.
For assay [4], the system named is Podosphaera fuliginea. The experiment in a line: Antifungal activity against Podosphaera fuliginea in cucumber at 2 ppm.
In assay [5] the test system is Podosphaera fuliginea. The experiment in a line: Antifungal activity against Podosphaera fuliginea in cucumber at 125 ppm.
Assay [6] has as its system Botrytis cinerea. The experiment in a line: Antifungal activity against Botryotinia fuckeliana in cucumber at 500 ppm.
For assay [7], the system named is Podosphaera fuliginea. The assay is described as follows: Antifungal activity against Podosphaera fuliginea in cucumber at 31.3 ppm.
Assay [8] deals with Pseudoperonospora cubensis. The experiment in a line: Antifungal activity against Pseudoperonospora cubensis in cucumber at 31.3 ppm.
The test system of assay [9] is Pseudoperonospora cubensis. The experiment in a line: Antifungal activity against Pseudoperonospora cubensis in cucumber at 7.8 ppm.
For assay [10], the system named is Pseudoperonospora cubensis. The assay is described as follows: Antifungal activity against Pseudoperonospora cubensis in cucumber at 2 ppm.
Assay [11] relates to Pseudoperonospora cubensis. The assay is described as follows: Antifungal activity against Pseudoperonospora cubensis in cucumber at 125 ppm.
Assay [12] relates to Podosphaera fuliginea. The experiment in a line: Antifungal activity against Podosphaera fuliginea in cucumber at 500 ppm.

For `CO/N=C(\c1ccccc1/C=N/OCc1ccc(Cl)cc1)c1nccn1C`, the Activity in assay [1] was below 50%; with Podosphaera fuliginea [2] it was 90%.

Turning to `CO/N=C(\c1ccccc1COc1ccc(Cl)cc1C)c1nccn1C`, the Activity is on record as 50% in the assay on Botrytis cinerea [3], below 50% in [1] and 90% in the assay on Podosphaera fuliginea [4].

Consider `CO/N=C(\c1ccccc1/C=N/OC(C)c1cccc(C(F)(F)F)c1)c1nccn1C` (stereo not drawn), for which the values for the Activity (in [1]; in the assay with Podosphaera fuliginea [4]) were 50% and 90%, respectively.

As to `CO/N=C(\c1ccccc1/C=N/OC(C)c1cccc(Cl)c1)c1nccn1C` (stereo not drawn), the Activity in assay [1] is listed as below 50%; in the assay with Podosphaera fuliginea [5], 90%.

Regarding `CO/N=C(\c1ccccc1COc1ccc(Cl)cn1)c1nccn1C`, the Activity with Botrytis cinerea [6] is on record as 50%; in assay [1] it was 50%; with Podosphaera fuliginea [7], 90%.

Regarding `CO/N=C(\c1ccccc1/C=N/OC(C)c1ccccc1)c1nccn1C` (stereo not drawn), the Activity in [1] is below 50%; with Podosphaera fuliginea [5] it was 90%.

On to `CO/N=C(\c1ccccc1/C=N/N=C(/C)c1ccc(Cl)cc1)c1nccn1C`, for which the figures for the Activity (in the assay on Botrytis cinerea [6]; with Podosphaera fuliginea [7]; in [8]) were below 50%, 90% and 50%, respectively.

As to `CO/N=C(\c1ccccc1/C=N/N=C(/C)c1ccc(Cl)c(Cl)c1)c1nccn1C`, the figures for the Activity (in the assay with Botrytis cinerea [6]; with Podosphaera fuliginea [2]; in [9]) were below 50%, 90% and 50%, respectively.

Take `CO/N=C(\c1ccccc1/C=N/OC(C)c1ccc(OC(F)(F)F)cc1)c1nccn1C` (stereo not drawn): the Activity in the assay with Podosphaera fuliginea [4] came out at 90%; in assay [10], 50%.

For `CO/N=C(\c1ccccc1/C=N/OC(C)c1ccc(Cl)c(Cl)c1)c1nccn1C` (stereo not drawn), the figures for the Activity (in the assay on Botrytis cinerea [6]; with Podosphaera fuliginea [4]; in assay [9]) were 50%, 90% and 50%, respectively.

Take `CO/N=C(\c1ccccc1/C=N/OC(C)c1ccc(OC)cc1)c1nccn1C` (stereo not drawn): the figures for the Activity (in [1]; in the assay with Podosphaera fuliginea [7]) were below 50% and 90%, respectively.

For `CO/N=C(\c1ccccc1/C=N/OC(C)c1ccc(Br)cc1)c1nccn1C` (stereo not drawn), the Activity in the assay with Podosphaera fuliginea [2] is given as 90%; in assay [9], 50%.

For the compound `CO/N=C(\c1ccccc1/C=N/OC(C)c1cccc(C)c1)c1nccn1C` (stereo not drawn), the values for the Activity (in assay [1]; with Podosphaera fuliginea [7]) were below 50% and 90%, respectively.

Consider `CO/N=C(\c1ccccc1/C=N/OC(C)c1ccccc1Cl)c1nccn1C` (stereo not drawn), for which the Activity is listed as below 50% in assay [1] and 90% in the assay with Podosphaera fuliginea [5].

`CO/N=C(\c1ccccc1/C=N/OC(C)c1ccc(C)cc1)c1nccn1C` (stereo not drawn): the Activity in assay [1] is below 50%; with Podosphaera fuliginea [7], 90%.

In the case of `CO/N=C(\c1ccccc1COc1ncc(Cl)cc1Cl)c1nccn1C`, the Activity in the assay on Botrytis cinerea [6] was found to be 50%; in assay [11], 50%; with Podosphaera fuliginea [2], 90%.

`CO/N=C(\c1ccccc1/C=N/OC(C)c1ccccc1C)c1nccn1C` (stereo not drawn): the Activity in the assay with Podosphaera fuliginea [12] is on record as 90%; in assay [1], below 50%.

As to `CO/N=C(\c1ccccc1/C=N/OC(C)c1ccc(Cl)cc1Cl)c1nccn1C` (stereo not drawn), the Activity is recorded as below 50% in assay [1] and 90% in the assay on Podosphaera fuliginea [7].

With `CO/N=C(\c1ccccc1/C=N/N=C(/C)c1ccc(C(F)(F)F)cc1)c1nccn1C`, the figures for the Activity (in the assay with Botrytis cinerea [6]; in the assay on Podosphaera fuliginea [2]; in assay [9]) were below 50%, 90% and 50%, respectively.

On to `CO/N=C(\c1ccccc1/C=N/OC(C)c1ccc(Cl)cc1)c1nccn1C` (stereo not drawn), for which the Activity in the assay on Botrytis cinerea [6] was determined as 50%; in the assay with Podosphaera fuliginea [4] it was 90%; in [9], 50%.

`CO/N=C(\c1ccccc1/C=N/OC(C)c1ccccc1C(F)(F)F)c1nccn1C` (stereo not drawn): the Activity is reported as below 50% in [1] and 90% with Podosphaera fuliginea [5].

For the compound `CCC(O/N=C/c1ccccc1/C(=N\OC)c1nccn1C)c1ccc(Cl)c(Cl)c1` (stereo not drawn), the Activity in the assay on Podosphaera fuliginea [7] came to 90%; in [9], 50%.

For the compound `CO/N=C(\c1ccccc1/C=N/OC(C)c1ccc(C(F)(F)F)cc1)c1nccn1C` (stereo not drawn), the Activity is below 50% with Botrytis cinerea [6], 90% with Podosphaera fuliginea [4] and 50% in [10].

In the case of `CO/N=C(\c1ccccc1COc1ccc(C(F)(F)F)cn1)c1nccn1C`, the Activity in the assay with Botrytis cinerea [6] came to 50%; in assay [1] it was 50%; with Podosphaera fuliginea [2] it was 90%.
